Source: ChEMBL document CHEMBL1155747, “Cytotoxic diacetylenes from the stony coral Montipora species” (2001)
Converted amounts (≈) assume the structure as drawn.

Tests used:
Format in all cases: functional
HCT-15 = assay: Cytotoxicity against human HCT15 cells; details: read-out: ED50 (the source's name)
A549 = assay: Cytotoxicity against human A549 cells; details: read-out: ED50 (the source's name)
XF498 = assay: Cytotoxicity against human XF498 cells; details: read-out: ED50 (the source's name)
SK-MEL-2 = assay: Cytotoxicity against human SK-MEL-2 cells; details: read-out: ED50 (the source's name)
SK-OV-3 = assay: Cytotoxicity against human SKOV3 cells; details: read-out: ED50 (the source's name)
HCT-116 = assay: Inhibition of cell cycle in human HCT116 cells assessed as increase in apoptotic fraction at 100 ug/mL after 24 hrs by flow cytometry; design: scale not given: the % may be the effect or the level left

C=CCCCCCC#CC#CCOCC(=O)[O-].[Na+] [MONTIPORIC AICD C]
EC50 (HCT-15): > 30 mg/L | EC50 (A549): > 30 mg/L | EC50 (XF498): > 30 mg/L | EC50 (SK-MEL-2): > 30 mg/L | EC50 (SK-OV-3): > 30 mg/L

C=CCCCCCC#CC#CCO [MONTIPORYNE G]
EC50 (HCT-15): 12.9 mg/L (≈ 73.4 µM) | EC50 (A549): 13.8 mg/L (≈ 78.2 µM) | EC50 (XF498): 10.8 mg/L (≈ 61.2 µM) | EC50 (SK-MEL-2): 9.56 mg/L (≈ 54.2 µM) | EC50 (SK-OV-3): 9.79 mg/L (≈ 55.5 µM)

CCCCCCCC#CC#CCO
EC50 (HCT-15): 5.9 mg/L (≈ 33.1 µM) | EC50 (A549): 5.48 mg/L (≈ 30.7 µM) | EC50 (XF498): 5.59 mg/L (≈ 31.4 µM) | EC50 (SK-MEL-2): 4.45 mg/L (≈ 25 µM) | EC50 (SK-OV-3): 4.63 mg/L (≈ 26 µM)

C=CCCCCCCCC#CC#CC(O)CC(C)=O (racemic) [MONTIPORYNE K]
EC50 (HCT-15): 4.18 mg/L (≈ 16.1 µM) | EC50 (A549): 4.91 mg/L (≈ 18.9 µM) | EC50 (XF498): 4.45 mg/L (≈ 17.1 µM) | EC50 (SK-MEL-2): 3.52 mg/L (≈ 13.5 µM) | EC50 (SK-OV-3): 3.34 mg/L (≈ 12.8 µM)

COc1cccc2c1C(=O)c1c(O)c3c(c(O)c1C2=O)C[C@@](O)(C(=O)CO)C[C@@H]3O[C@H]1C[C@H](N)[C@H](O)[C@H](C)O1 [DOXORUBICIN]
EC50 (HCT-15): 0.04 mg/L (≈ 0.0736 µM) | EC50 (A549): 0.02 mg/L (≈ 0.0368 µM) | EC50 (XF498): 0.08 mg/L (≈ 0.147 µM) | EC50 (SK-MEL-2): 0.03 mg/L (≈ 0.0552 µM) | EC50 (SK-OV-3): 0.13 mg/L (≈ 0.239 µM)

CCCCCCCC#CC#C/C=C/C(C)=O [MONTIPORYNE A]
Activity (HCT-116): 19%

C=CCCCCCCCC#CC#CCO
EC50 (HCT-15): 3.32 mg/L (≈ 16.2 µM) | EC50 (A549): 3.9 mg/L (≈ 19.1 µM) | EC50 (XF498): 5.26 mg/L (≈ 25.7 µM) | EC50 (SK-MEL-2): 3.94 mg/L (≈ 19.3 µM) | EC50 (SK-OV-3): 3.23 mg/L (≈ 15.8 µM)

C=CCCCCCCCC#CC#CCOCC(=O)[O-].[Na+]
EC50 (HCT-15): 4.47 mg/L | EC50 (A549): 6.26 mg/L | EC50 (XF498): 4.96 mg/L | EC50 (SK-MEL-2): 4.68 mg/L | EC50 (SK-OV-3): 4.88 mg/L

CCCCCCCC#CC#CCOCC(=O)[O-].[Na+] [MONTIPORIC ACID A SODIUM SALT]
EC50 (HCT-15): 8.3 mg/L | EC50 (A549): 6.31 mg/L | EC50 (XF498): 7.72 mg/L | EC50 (SK-MEL-2): 7.97 mg/L | EC50 (SK-OV-3): 7.5 mg/L

C=CCCCCCC#CC#C/C=C/C(C)=O
EC50 (HCT-15): 4.56 mg/L (≈ 21.3 µM) | EC50 (A549): 6.39 mg/L (≈ 29.8 µM) | EC50 (XF498): 5.5 mg/L (≈ 25.7 µM) | EC50 (SK-MEL-2): 4.21 mg/L (≈ 19.6 µM) | EC50 (SK-OV-3): 3.52 mg/L (≈ 16.4 µM)

C=CCCCCCC#CC#C/C=C\C(C)=O
EC50 (HCT-15): 11.3 mg/L (≈ 52.7 µM) | EC50 (A549): > 30 mg/L | EC50 (XF498): 29.2 mg/L (≈ 136 µM) | EC50 (SK-MEL-2): 4.61 mg/L (≈ 21.5 µM) | EC50 (SK-OV-3): 5.23 mg/L (≈ 24.4 µM)

C=CCCCCCC#CC#CC(O)CC(C)=O (racemic)
EC50 (HCT-15): 3.42 mg/L (≈ 14.7 µM) | EC50 (A549): 4.97 mg/L (≈ 21.4 µM) | EC50 (XF498): 3.87 mg/L (≈ 16.7 µM) | EC50 (SK-MEL-2): 3.74 mg/L (≈ 16.1 µM) | EC50 (SK-OV-3): 3.85 mg/L (≈ 16.6 µM)

C=CCCCCCC#CC#CCOCCO [MONTIPORYNE H]
EC50 (HCT-15): 24.1 mg/L (≈ 109 µM) | EC50 (A549): 22.7 mg/L (≈ 103 µM) | EC50 (XF498): 16.9 mg/L (≈ 76.6 µM) | EC50 (SK-MEL-2): 25.1 mg/L (≈ 114 µM) | EC50 (SK-OV-3): 17.9 mg/L (≈ 81.4 µM)

CCCCCCCC#CC#CC(O)CC(C)=O (racemic) [MONTIPORYNE I]
EC50 (HCT-15): 3.73 mg/L (≈ 15.9 µM) | EC50 (A549): 4.17 mg/L (≈ 17.8 µM) | EC50 (XF498): 3.7 mg/L (≈ 15.8 µM) | EC50 (SK-MEL-2): 1.4 mg/L (≈ 5.97 µM) | EC50 (SK-OV-3): 1.81 mg/L (≈ 7.72 µM)

CCCCCCCC#CC#CCOCC(=O)OC [METHYLMONTIPORATE A]
EC50 (HCT-15): 25.6 mg/L (≈ 102 µM) | EC50 (A549): > 30 mg/L | EC50 (XF498): > 30 mg/L | EC50 (SK-MEL-2): > 30 mg/L | EC50 (SK-OV-3): 20.5 mg/L (≈ 82 µM)

C=CCCCCCCCC#CC#CCOCC(=O)OC [METHYLMONTIPORATE B]
EC50 (HCT-15): > 30 mg/L | EC50 (A549): > 30 mg/L | EC50 (XF498): > 30 mg/L | EC50 (SK-MEL-2): > 30 mg/L | EC50 (SK-OV-3): > 30 mg/L
